According to patent US20040142379A1, “Affinity fishing for ligands and proteins receptors” (Carlsberg Research Laboratory, priority 2003, published 2004):
“Also recorded” adds a separate entry of the source. Non-standard residues stand in square brackets, D forms with d. No end group written: not given here. Aze = O=C(O)[C@@H]1CCN1

Assays:
[1] = system: Normal Myocytes (basal) protein mixture; test: Solid phase screening of Library 1 with labeled myocyte proteins; on-bead affinity isolation and peptide mass fingerprinting of bound protein (basal); format: binding, neonatal Wistar rats; conditions: proteins bound to resin-bound Library 1 ligand, primarily present in basal cells; LA low abundance, M transmembrane or partially embedded, MA membrane associated; parentheses = possible complexes
Protocol: (§1) Myocytes were prepared from 1 to 5 day old neonatal Wistar rats (University of Copenhagen) according to literature procedure described in Busk et al., 2002, Cardiovasc. Res., 56: 64-75 and plated into eight P10 culture plates at 6 million cells/plate. Cells were grown at 37° C. and 5% CO2 humidity in serum free Modified Eagle Media (MEM). After 2 days, the adherent cells were washed at room temperature with serum free MEM (2×) and fresh MEM was added. To four of the plates, 10 μM phenylephrine (PE) was also added. Cells were grown for two more days and then harvested as described below.
(§2) Protein was extracted from myocytes prepared as described above for Example 9, using a new procedure modified from existing protocols, primarily: Arnott, et al., 1998, Anal. Biochem. 258: 1-18. The media was removed from plates and adhered cells were treated for 10 minutes with ice cold phosphate buffer (0.25 mL, 10 mM, pH 7.5, augmented with 0.15 M NaCl 60 mM Benzamidine HCl, 5 mM EDTA, 10 μg/mL E-64, 10 μg/mL Leupeptin, 10 μg/mL Pepstatin A, and 1 mM PMSF). The cells were scraped off the plates and then lysed (on ice) in a sonicator (2×) using 10 seconds off/10 seconds on cycles.
(§3) The resulting suspension was augmented with CHAPS, DTT, and urea to a final concentration of CHAPS (1% w/v), DTT (5 mM), and urea (8 M). After 10-15 minutes on ice, the solution was centrifuged for 10 minutes at 15,000 rpm at 4° C. The supernatant was removed and protein content quantified using the NanoOrange Protein test (Molecular Probes, Eugene, Oreg.): Total protein recovered: 70.5 μg for PE-treated cells and 60 μg for basal cells.
(§4) Fluorescent dye Oregon Green 514 (OR) (Molecular Probes) was used to label the healthy/basal cells while Rhodamine Red (RR) (Molecular Probes) was used to label the PE-treated cells. The labeling procedures were carried out according to the manufacturer's protocol. The protein solutions (0.25 mL, 50.4 μg for PE cells and 0.25 mL, 42.8 μg for basal cells) were dialyzed against a solution of 10 mM phosphate buffer, 0.15 M NaCl, pH 7.5 and then 1 M NaHCO3 (0.025 mL) added to a final pH of 8.5. 10 μL of dye in dry DMF (10 mg/mL) was added and the sample stirred at room temperature for 2 hours. The protein solution was dialyzed extensively against 10 mM phosphate buffer, 0.15 M NaCl, pH 7.5, to remove excess dye.
(§5) Ligand library 1 (200 mg), prepared as described for Example 5, was transferred to a syringe fitted with a stop-valve and the ligand-beads were washed for 10 minutes (3×) with 10 mM phosphate buffer, pH 6.8, supplemented with 0.15 M NaCl, 1 mM Ca^2+, 1 mM Zn^2+, 1 mM Mn^2+, 1 mM Cu^2+, and 1 mM Mg^2+ (3 mL). The ligand-beads were treated with a 1% BSA solution for 30 minutes, then washed with buffer (1×). A mixture of labeled myocyte proteins, including both PE-induced protein (138 μL, 40 μg) and basal protein (167 μL, 40 μg) obtained as described above for Example 11, was prepared in 1.2 mL buffer, and added to the ligand library in the syringe. The proteins and ligand library were incubated at room temperature for 16 hours. The library was then washed with buffer for 5 minutes then with water for 3×5 minutes. The library was examined under a fluorescence microscope and brightly fluorescent red, green, and yellow beads (yellow indicative of both dyes red and green binding; the majority of the beads) were present, as well as unlabelled beads. The fluorescent beads were parted and retained for analysis.
(§6) The fluorescent ligand library beads containing bound myocyte protein obtained as described in Example 15, were sorted using a COPAS (250) NF Bead Sorter (Union Biometrica, Somerville, Mass.). Beads emitting fluorescence of only one color contain proteins from one physical state, proteins expressed only in the PE-induced hypertrophic state (red) or proteins expressed only in the basal state (green).

Phosphomannose isomerase = molecular target: T1, Phosphomannose isomerase (Candida albicans, UniProt P34948); conditions: in Candida; Wells et al, 1996; cited from earlier work
T1 sequence (P34948 1-441): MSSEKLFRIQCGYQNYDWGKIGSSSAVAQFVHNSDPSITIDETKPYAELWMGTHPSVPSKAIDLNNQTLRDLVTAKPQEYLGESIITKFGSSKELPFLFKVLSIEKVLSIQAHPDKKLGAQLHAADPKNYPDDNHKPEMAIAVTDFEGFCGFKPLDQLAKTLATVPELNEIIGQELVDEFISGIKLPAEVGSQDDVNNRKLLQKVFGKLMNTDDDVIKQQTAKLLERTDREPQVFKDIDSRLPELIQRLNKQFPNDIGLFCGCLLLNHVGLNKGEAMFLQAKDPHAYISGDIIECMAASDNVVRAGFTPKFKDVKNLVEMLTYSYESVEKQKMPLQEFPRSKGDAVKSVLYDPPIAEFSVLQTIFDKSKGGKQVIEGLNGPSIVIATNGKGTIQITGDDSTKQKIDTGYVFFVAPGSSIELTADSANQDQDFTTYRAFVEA

Myocytes = test: Myocyte culture with phenylephrine (in vitro model of hypertrophy); format: cell-based, neonatal Wistar rats; conditions: 10 μM phenylephrine, grown two more days, serum free MEM
Protocol: as §1
Using the procedures described above for Examples 1-5, the ligand Library 1 (containing unnatural amino acids) as described for Example 5, myocyte proteins prepared and labeled as described for Examples 9 and 11, screening as described for Example 15, sorting and identifying as described for Examples 18 to 21, digestion and protein identification as described for Examples 25-31, previously unknown, specific, differential ligand-protein binding pairs were identified for the normal (basal) myocyte protein mixtures and the phenylephrine (PE)-treated myocyte proteins screened against the ligands of Library 1. Phenylephrine was used to provide an in vitro model of hypertrophy, for example, cardiac hypertrophy (Arnott et al., 1998, Anal. Biochem., 1:1-18).

[2] = system: Phenylephrine Treated (Hyperthrophic) Myocytes protein mixture; test: Solid phase screening of Library 1 with labeled myocyte proteins; on-bead affinity isolation and peptide mass fingerprinting of bound protein (PE-induced); format: binding, neonatal Wistar rats; conditions: proteins bound to resin-bound Library 1 ligand, primarily present in PE-treated hypertrophied cells; LA low abundance, M transmembrane or partially embedded, MA membrane associated
Protocol: as §1, §2, §3, §4, §5, §6

[3] = system: isoleucine tRNA synthetase; conditions: approved antibiotic; Merck Manual; cited from earlier work

| Compound | Identified Protein(s) [1] | Identified Protein(s) [2] | also measured |
| --- | --- | --- | --- |
| Phe-Thr-Pya-Pip-Asp-His | (Sodium channel (M); Chloride channel (M)) Troponin; Ribosomal; also recorded: proteins L26; Serine hydroxy methyl transferase; Zn Finger protein (MA);; also recorded: Adherin aminotransferase (M); (Gluthathione transferase; Gluthathione; also recorded: peroxidase;) | – | – |
| F[Aze]GHG[Aze] | Hypothetical proteins; Cysteine and tyrosine rich proteins of unknown; also recorded: function (M); (Mitochondrial ATP synthase; Ribosomal proteins (L; also recorded: series);) Serine protease; SPTR | – | – |
| Nc1ccc(S(=O)(=O)Nc2ncccn2)cc1 [sulfadiazene] | – | – | enzyme inhibition (Phosphomannose isomerase): inhibited |
| CNC[C@H](O)c1cccc(O)c1 [PE, phenylephrine] | – | – | cell size at time of harvest (Myocytes): significantly enlarged |
| Phe-Gua-Pal-Tyr-Gua-Tyr | – | Glucose-6-Phosphatase; Succinate dehydrogenase; ARL-interacting; also recorded: protein (M); SPTR (M), Nucleic acid binding protein | – |
| Pip-Pal-Pal-Phe-Pya-Pip | Myosin light chain kinase (LA, MA); (Tyrosine phosphatase (LA, M);; also recorded: ATP Synthase component (M)) Gluthathione S-transferase; Cytochrome; also recorded: P450 (M); Ribosomal proteins (60s); SPTR (M)) | – | – |
| Pal-Abi-Gly-Gly-Abi-His | – | Ribosomal protein (60s + 40s); Low density lipoprotein receptor | – |
| Phe-Ppy-Acc-Ala-Ppy-Hpy | Hypothetical proteins; Troponin T; (Phospholipase C (MA);; also recorded: Phosphatidylcholine sterol acyl transferase) | – | – |
| Pya-Hyp-Hyp-Phe-Acm-Tyr | Troponin T; Growth hormone receptor (M); Protein kinase (LA) | – | – |
| Phe-Abi-Pal-Hyp-Thr-Hyp | – | Zinc finger associated protein; Ribosomal proteins; Protein phosphatase and (LA) | – |
| C/C(=C\C(=O)OCCCCCCCCC(=O)O)C[C@@H]1OC[C@H](C[C@@H]2O[C@H]2[C@@H](C)[C@H](C)O)[C@@H](O)[C@H]1O [Mupirocin] | – | – | enzyme inhibition [3]: inhibits |
| Pya-Gua-Pip-Acc-Phe-Pip | NADH dehydrogenase; ATP binding component (M); Myosin; Histone; also recorded: associated proteins (M) | – | – |
| Abi-Phe-Abi-Phe-Che-Tyr | – | Cathepsin E; Ribosomal proteins, Actin binding protein, Amino acid; also recorded: transferase | – |
| Abi-Thr-Hyp-Hyp-His-?- | – | Phosphofructokinase; Selenium binding protein; (Serine arginine rich; also recorded: protein kinase (LA); Guanylate kinase (LA), Protein tyrosine kinase; also recorded: (LA)); Alkaline phosphatase; Symporter (M); SPTR (M); WAP-protein;; also recorded: GTP Hydrolase, Actin filament | – |
| Pya-Gua-Abi-Asp-Abi-Tyr | – | SPTR (M); Ribosomal proteins (60s); (Calcium channel (M); Slo channel; also recorded: protein isoform (M); Potassium conductance calcium activated channel; also recorded: (M); Symporter (M;) NADH dehydrogenase; Malate dehydrogenase; N-; also recorded: Acetyl transferase; Mitochondrial associated protein; G-protein receptor; also recorded: used for signaling (LA, M) | – |
